Molecules are shown by their SMILES. Bounds are passed on as bounds.

In one experiment the target is T1, WEE1 (Homo sapiens, UniProt P30291).
T1 construct: purchased Thermo Fisher PR7373A
Kind of experiment: Selectivity versus WEE1 assay (ADP-Glo enzymatic assay). It counts as biochemical. The settings on record: for IC50: ADP-Glo; for PKMYT1 vs. WEE1 selectivity: fold difference in selectivity for PKMYT1 over WEE1. A digest of the protocol:
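WEE1 at 15 nM final in 50 mM HEPES pH 7.5, 10 mM MgCl2, 1 mM EGTA, 0.01% Brij-35, 1% DMSO; reaction started with 30 µM ATP, 60 min at 26 °C. ADP-Glo luminescence; IC50 from dose-response curves, replicates within 3-fold and r2 >0.9.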
Background: ADP-Glo first removes unused ATP, then detects ADP through luciferase.

A further experiment deals with T2, Human PKMYT1 (Homo sapiens, UniProt Q99640).
T2 construct: Human PKMYT1 75-362 was cloned as a TEV cleavable 6xHis fusion; 6xHis (TEV cleavable) (cleaved yes); made in house; host or cells: bacterial cells
T2 sequence (Q99640 75-362): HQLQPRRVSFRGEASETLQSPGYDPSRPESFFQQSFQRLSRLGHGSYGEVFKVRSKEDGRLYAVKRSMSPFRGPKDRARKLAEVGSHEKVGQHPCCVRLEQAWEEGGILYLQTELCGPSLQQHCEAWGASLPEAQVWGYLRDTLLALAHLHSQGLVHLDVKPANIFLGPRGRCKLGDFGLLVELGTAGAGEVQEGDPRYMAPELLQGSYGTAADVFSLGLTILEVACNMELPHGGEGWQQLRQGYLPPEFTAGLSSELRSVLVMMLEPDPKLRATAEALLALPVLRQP
Kind of experiment: PKMYT1 biochemical ADP-Glo enzymatic assay. The conditions noted are these: ADP-Glo. A digest of the protocol:
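Purified untagged human PKMYT1 75-362 at 15 nM final was tested in HEPES pH 7.5 with MgCl2, EGTA, Brij-35 and 1% DMSO. Intrinsic ATPase activity was measured with 500 uM ATP over 60 min at 26° C. ADP-Glo luminescence was read and IC50 fitted from 10-point, 3-fold dilution curves.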

[1] abbreviates: 15 nM WEE1, 60 minutes at 26° C., banded.
Setting [2] is: banded, ">N" = at least in this band but could be higher.
Where [3] appears, read: 15 nM PKMYT1 kinase domain, 500 µM ATP, 60 minutes at 26° C., banded.

T1 sequence (P30291 whole entry): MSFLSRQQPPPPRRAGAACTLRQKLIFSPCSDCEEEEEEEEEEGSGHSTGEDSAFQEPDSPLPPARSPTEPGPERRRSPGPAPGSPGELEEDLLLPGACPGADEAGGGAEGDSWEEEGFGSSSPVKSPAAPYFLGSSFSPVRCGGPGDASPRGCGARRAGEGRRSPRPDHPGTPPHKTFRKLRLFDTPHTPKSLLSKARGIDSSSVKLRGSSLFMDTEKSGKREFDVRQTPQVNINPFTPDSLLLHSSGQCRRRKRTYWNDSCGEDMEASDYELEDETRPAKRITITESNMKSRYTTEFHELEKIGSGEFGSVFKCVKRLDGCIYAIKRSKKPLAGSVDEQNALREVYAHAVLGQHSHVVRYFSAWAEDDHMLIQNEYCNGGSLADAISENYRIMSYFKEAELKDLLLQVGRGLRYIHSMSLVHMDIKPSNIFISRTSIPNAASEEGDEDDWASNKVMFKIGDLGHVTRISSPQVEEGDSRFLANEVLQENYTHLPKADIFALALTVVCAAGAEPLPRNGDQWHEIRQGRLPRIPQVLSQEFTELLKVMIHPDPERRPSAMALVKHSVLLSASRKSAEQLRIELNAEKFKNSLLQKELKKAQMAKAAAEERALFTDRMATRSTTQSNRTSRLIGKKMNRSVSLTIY

As usually defined, the IC50 is the midpoint of a concentration-inhibition curve. High values mean lower potency, low ones higher potency. Turning to `Cc1ccc(O)c(C)c1NC(=O)c1cnc(Nc2nc(C)c(Br)c(C)n2)s1` [BAA-295, 2-((5-bromo-4,6-dimethylpyrimidin-2-yl)amino)-N-(3-hydroxy-2,6-dimethylphenyl)thiazole-5-carboxamide], the half-maximal inhibitory concentration (IC50) is over 11000 nM against WEE1 (setting [1]) and 50 to 1000 nM against Human PKMYT1 (setting [3]). Moreover, the “PKMYT1 vs. WEE1 selectivity” value at WEE1 (setting [2]) is given as “Y (1000-5000 fold)”.
As for `Cc1c[nH]nc1Nc1ncc(C(=O)Nc2c(C)ccc(O)c2C)s1` [BAA-388, N-(3-hydroxy-2,6-dimethylphenyl)-2-((4-methyl-1H-pyrazol-3-yl)amino)thiazole-5-carboxamide], the IC50 at WEE1 (setting [1]) was 1000 to 11000 nM; against Human PKMYT1 (setting [3]) it was under 50 nM. Also, the “PKMYT1 vs. WEE1 selectivity” value at WEE1 (setting [2]) is “X (100-<1000 fold)”.
The like results for `CCCN1CC[C@@H](n2ccc(Nc3ncc(C(=O)Nc4c(C)ccc(O)c4C)s3)n2)C1` [BAA-114, N-(3-Hydroxy-2,6-dimethyl-phenyl)-2-[[1-[(3R)-1-propylpyrrolidin-3-yl]pyrazol-3-yl]amino]thiazole-5-carboxamide] were, in that order, over 11000 nM, 50 to 1000 nM and “>X (100-<1000 fold)”.
The like results for `COc1ccc(CC(=O)N2CCC(CNc3ncc(C(=O)Nc4c(C)ccc(O)c4C)s3)CC2)cc1` [BAA-213, N-(3-Hydroxy-2.6-dimethyl-phenyl)-2-[[1-[2-(4-methoxyphenyl)acetyl]-4-piperidyl]methylamino]thiazole-5-carboxamide] were, in that order, over 11000 nM, 50 to 1000 nM and “>X (100-<1000 fold)”.
The like results for `CCN1CCN(C(=O)Cn2ccc(Nc3ncc(C(=O)Nc4c(C)ccc(O)c4C)s3)n2)CC1` [BAA-177] were, in that order, over 11000 nM, under 50 nM and “X (100-<1000 fold)”.
As for `Cc1ccc(O)c(C)c1NC(=O)c1cnc(Nc2cccc(C(=O)N3CC4CCC3C4)c2)s1` (stereo not drawn) [BAA-289, 2-((3-(2-azabicyclo[2.2.1]heptane-2-carbonyl)phenyl)amino)-N-(3-hydroxy-2,6-dimethylphenyl)thiazole-5-carboxamide], the half-maximal inhibitory concentration (IC50) against WEE1 (setting [1]) was 1000 to 11000 nM; on Human PKMYT1 (setting [3]), under 50 nM. In addition, the “PKMYT1 vs. WEE1 selectivity” value on WEE1 (setting [2]) is “X (100-<1000 fold)”.
The like results for `Cc1ccc(O)c(C)c1NC(=O)c1cnc(Nc2nn(C)c3c2CCCC3)s1` [BAA-246, N-(3-hydroxy-2,6-dimethylphenyl)-2-((1-methyl-4,5,6,7-tetrahydro-1H-indazol-3-yl)amino)thiazole-5-carboxamide] were, in that order, over 11000 nM, 1000 to 11000 nM and “W (10-<100 fold)”.
For `COCCn1nc(Nc2ncc(C(=O)Nc3c(C)ccc(O)c3C)s2)cc1C` [BAA-255, N-(3-hydroxy-2,6-dimethylphenyl)-2-((1-(2-methoxyethyl)-5-methyl-1H-pyrazol-3-yl)amino)thiazole-5-carboxamide], the values for the IC50 against WEE1 (setting [1]) and on Human PKMYT1 (setting [3]) were over 11000 nM and 50 to 1000 nM, respectively. Also, the “PKMYT1 vs. WEE1 selectivity” value on WEE1 (setting [2]) is “X (100-<1000 fold)”.
Regarding `Cc1ccc(O)c(C)c1NC(=O)c1cnc(Nc2cn(C)nc2C(F)(F)F)s1` [BAA-548, N-(3-hydroxy-2,6-dimethylphenyl)-2-((1-methyl-3-(trifluoromethyl)-1H-pyrazol-4-yl)amino)thiazole-5-carboxamide], the IC50 against WEE1 (WEE1 15 nM, banded values) was over 11000 nM; against Human PKMYT1 (PKMYT1 kinase domain 15 nM, banded values), 50 to 1000 nM. Moreover, at WEE1 (banded), the “PKMYT1 vs. WEE1 selectivity” value is given as “X (100-<1000 fold)”.
On to `Cc1ccc(O)c(C)c1NC(=O)c1cnc(Nc2nc(C)c(-c3cc(F)cc(F)c3)c(C)n2)s1` [BAA-301, 2-((5-(3,5-difluorophenyl)-4,6-dimethylpyrimidin-2-yl)amino)-N-(3-hydroxy-2,6-dimethylphenyl)thiazole-5-carboxamide], for which the IC50 is over 11000 nM against WEE1 (setting [1]) and 50 to 1000 nM against Human PKMYT1 (setting [3]). In addition, the “PKMYT1 vs. WEE1 selectivity” value at WEE1 (setting [2]) is “X (100-<1000 fold)”.

For the origin of these results see patent US20260297042A1, “BIARYLAMIDE DERIVATIVES AND THEIR USE AS PKMYT1 INHIBITORS” (CANCER RESEARCH TECHNOLOGY LIMITED, priority 2023, published 2026).
